The source of these data is patent US12152049B2, “STING agonistic compound” (ONO PHARMACEUTICAL CO., LTD., priority 2018, dated 2024).

Counter-ions that a name gives are not always drawn.

One may read the EC50 as the concentration at which the effect is half-maximal. A high value points to lower potency in that assay.

The target of one assay is T1, IDO1 (Homo sapiens, UniProt P14902).
T1 construct: His-tag; purchased BPS Bioscience
As to the kind of experiment: Evaluation of IDO1 inhibitory activity (IDO1 Fluorogenic Inhibitor Screening Assay Kit). It counts as biochemical. The note with it: compound solutions of 0.6, 2, 6, 20, 60 and 200 μmol/L added. The method, then: The evaluation of IDO1 inhibitory activity was carried out using the IDO1 Fluorogenic Inhibitor Screening Assay Kit (BPS Bioscience). Specifically, IDO1 Fluorogenic Reaction Solution was dissolved, of which 180 μL were added to each well. Then, 10 μL of compounds at the respective concentrations of 0.6, 2, 6, 20, 60 and 200 μmol/L were added thereto. Further, after adding 10 μL of IDO1 His-Tag solution thereto, of which the mixtures were incubated at room temperature for 1 hour, and then 20 μL of Fluorescence Solution was added thereto, of which the mixtures were incubated at 37° C. for 4 hours. After standing them at room temperature for 10 minutes, the fluorescence was measured using a microplate reader (excitation: 400 nm, emission: 510 nm).

Another assay relates to THP1-Dual cells. As to the kind of experiment: Effects on THP1-Dual cells: activation of the IRF pathway (Quanti-luc luminescence). It counts as cell-based. To be noted: Homo sapiens, incubation about 24 hours. On the procedure:
THP1-Dual cells (Invivogen) were suspended in RPMI medium to prepare 2×10^6 cells/mL of cell suspension. 50 μL of the cell suspensions were dispensed into a 96-well plate, to which 50 μL of 6 to 20,000 nmol/L compound solutions were added. After adding the compound, the mixture was incubated at 37° C. for about 24 hours. After incubation, 10 μL of cell suspensions were collected from the respective wells, which were mixed with 50 μL of Quanti-luc (Invivogen). Then, the activation of the IRF (Interferon regulatory factor) pathway was measured by detecting luminescence using a microplate reader (Molecular Devices).

The test system of assay [1] is BTK, KDR, each subtype of PKCα to ι, each CDK of CDK2 to 9, FAK, TIE2, RAF1 and BRAF. As to the kind of experiment: Evaluation of inhibitory activity against various kinases (mobility shift, LabChip). The note with it: 4 μmol/L test substance solution (4 times the final concentration). The assay is classed as biochemical. The method, then: 4 μmol/L of test substance solution (the compound of the present invention shown in Example 1) (at 4 times the final concentration) was prepared by dissolving it to the assay buffer (20 mmol/L HEPES, 0.01% Triton X-100, 1 mmol/L DTT, pH 7.5). 4 μmol/L of substrate/ATP/metal solution (at 4 times the final concentration) was prepared by dissolving them to the kit buffer (20 mmol/L HEPES, 0.01% Triton X-100, 5 mmol/L DTT, pH 7.5).
Various kinase solutions at twice the final concentration were prepared by dissolving them to the assay buffer. 5 μL of the test substance solution, 5 μL of the substrate/ATP/metal solution and 10 μL of the kinase solution were mixed in wells of a polypropylene 384-well plate, of which the mixture was reacted at room temperature for 1 to 5 hours. The reaction was stopped by adding 70 μL of the termination buffer (QuickScout Screening Assist MSA; Cama Biosciences). The substrate peptide and phosphorylated peptide in the reaction solution were separated and quantified by LabChip system (Perkin Elmer). The kinase reaction was evaluated by the product ratio (P/(P+S)) calculated from the peak height (S) of the substrate peptide and the peak height (P) of the phosphorylated peptide. The various kinases used for evaluation are as follows:
BTK, KDR, each subtype of PKCα to ι, each CDK of CDK2 to 9, FAK, TIE2, RAF1 and BRAF.

For assay [2], the system named is mouse colon cancer cell line MC38. As to the kind of experiment: Anti-tumor effect in tumor model bearing subcutaneous mouse colon cancer cell line MC38. To be noted: 3 mg/kg, administered 7 days after MC38 transplantation, measured until Day 26. The assay is classed as in vivo, mice (C57/BL6). The method, then: Colon cancer cell line MC38 derived from C57/BL6 mice were subcutaneously transplanted to right flank of syngeneic mice (C57/BL6, female, 6 weeks old (Charles River Japan)) (herein, the day of transplantation was Day 0) to prepare tumor mice bearing subcutaneous MC38. Seven days after transplantation, tumor mice bearing subcutaneous MC38 were grouped based on tumor volume, and used as the Vehicle group (n=8) and the compound administration group (3 mg/kg, n=6) shown in Example 1. The changes in tumor volume were continuously measured until the 26 days after transplantation (Day 26). The tumor volume was calculated by the following formula: [Tumor volume (mm^3)]=[major axis (mm)]×[minor axis (mm)]^2×0.5
Colon cancer cell line MC38 derived from C57/BL6 mice were subcutaneously transplanted to right flank of syngeneic mice (C57/BL6, female, 6 weeks old (Charles River Japan)) (herein, the day of transplantation was Day 0) to prepare tumor mice bearing subcutaneous MC38. They were grouped based on tumor volume 7 or 8 days after transplantation, to which the Vehicle (n=8 or 6) and the respective compounds of Examples 10 and 10(1) to 10(6) (1, 1, 1, 10, 3, 1 and 1 mg/kg, n=8 or 6) were administered. The changes in tumor volume were measured serially until the 28 or 30 days after transplantation (Day 28 or 30). The tumor volume was calculated from the formula shown in Example 16.

Another assay deals with THP1-Dual-STING KO cells. As to the kind of experiment: Activity on THP1-Dual-STING KO cells: IRF pathway (Quanti-luc luminescence). The assay is classed as cell-based. The note with it: STING gene homozygous deficient THP1-Dual cells, 6 to 20,000 nM compound solutions, about 24 hours. The method, then:
STING gene homozygous deficient THP1-Dual cells (THP1-Dual-STING KO cells (Invivogen) were suspended in RPMI medium to prepare 2×10^6 cells/mL cell suspension. 50 μL of cell suspensions were dispensed into a 96-well plate, to which 50 μL of 6 to 20,000 nM compound solutions were further added, followed by incubation at 37° C. for about 24 hours. 10 μL of the cell suspensions were collected from the respective wells, which were mixed with 50 μL of Quanti-luc (Invivogen), and then the activity of the IRF pathway was measured by detecting luminescence using a microplate reader.

T1 sequence (P14902 whole entry): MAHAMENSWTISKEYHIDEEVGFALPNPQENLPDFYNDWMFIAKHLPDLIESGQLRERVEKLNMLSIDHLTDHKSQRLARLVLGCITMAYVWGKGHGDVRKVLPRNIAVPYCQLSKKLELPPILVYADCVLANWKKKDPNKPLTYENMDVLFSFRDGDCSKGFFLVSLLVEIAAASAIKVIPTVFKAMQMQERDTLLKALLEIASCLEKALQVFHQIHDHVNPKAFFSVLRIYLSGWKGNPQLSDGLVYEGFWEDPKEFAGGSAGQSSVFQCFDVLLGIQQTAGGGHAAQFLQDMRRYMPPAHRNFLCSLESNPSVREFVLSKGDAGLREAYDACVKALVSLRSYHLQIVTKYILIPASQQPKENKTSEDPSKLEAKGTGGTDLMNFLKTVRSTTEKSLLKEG

For the molecule `COC(=O)c1cc(-c2ncc(-c3cn[nH]c3)c3onc(N)c23)c(F)cc1N` [Example 1, methyl 2-amino-5-(3-amino-7-(1H-pyrazol-4-yl)isoxazolo[4,5-c]pyridin-4-yl)-4-fluorobenzoate], the IDO1 inhibitory activity entry on IDO1 is on record as “did not show any IDO1 inhibitory activity”. Moreover, in the assay on THP1-Dual cells, the EC50 came out at 180 nM. For the same molecule, the “inhibitory activity against the evaluated kinases” value in assay [1] is reported as “did not showed any significantly inhibit activities”. Also, in assay [2], the “tumor growth (tumor volume)” value is on record as “almost completely suppressed the tumor growth”. Moreover, in the assay with THP1-Dual-STING KO cells, the IRF activating effect entry is listed as “no IRF activating effect”.

The molecule `COc1cc(-c2ncc(-c3cn[nH]c3)c3onc(N)c23)c(F)cc1N` [Example 2, 4-(4-amino-2-fluoro-5-methoxyphenyl)-7-(1H-pyrazol-4-yl)isoxazolo[4,5-c]pyridin-3-amine hydrochloride] yielded an EC50 in the assay on THP1-Dual cells of 1930 nM.

`CC(=O)c1cc(-c2ncc(-c3cn[nH]c3)c3onc(N)c23)c(F)cc1N` [Example 3, 1-(2-amino-5-(3-amino-7-(1H-pyrazol-4-yl)isoxazolo[4,5-c]pyridin-4-yl)-4-fluorophenyl)ethan-1-one] had an EC50 in the assay with THP1-Dual cells of 40 nM.

Consider `CS(=O)(=O)c1cc(-c2ncc(-c3cn[nH]c3)c3onc(N)c23)c(F)cc1N` [Example 4(3), 4-(4-amino-2-fluoro-5-(methylsulfonyl)phenyl)-7-(1H-pyrazol-4-yl)isoxazolo[4,5-c]pyridin-3-amine hydrochloride], for which the response with THP1-Dual cells was half-maximal at 950 nM (EC50).

Consider `NC(=O)c1cc(-c2ncc(-c3cn[nH]c3)c3onc(N)c23)c(F)cc1N` [Example 4(5), 2-amino-5-(3-amino-7-(1H-pyrazol-4-yl)isoxazolo[4,5-c]pyridin-4-yl)-4-fluorobenzamide hydrochloride], for which it took 80 nM to reach a half-maximal effect in the assay on THP1-Dual cells (EC50).

Molecule `CCOC(=O)c1cc(-c2ncc(-c3cn[nH]c3)c3onc(N)c23)c(F)cc1N` [Example 4(6), ethyl 2-amino-5-(3-amino-7-(1H-pyrazol-4-yl)isoxazolo[4,5-c]pyridin-4-yl)-4-fluorobenzoate hydrochloride] came in with an EC50 in the assay on THP1-Dual cells of 40 nM.

In turn, `CCC(=O)c1cc(-c2ncc(-c3cn[nH]c3)c3onc(N)c23)c(F)cc1N` [Example 4(7), 1-(2-amino-5-(3-amino-7-(1H-pyrazol-4-yl)isoxazolo[4,5-c]pyridin-4-yl)-4-fluorophenyl)propan-1-one hydrochloride] yielded an EC50 with THP1-Dual cells of 20 nM. Compared with the last molecule, the EC50 is about 2-fold lower.

Turning to `CCNC(=O)c1cc(-c2ncc(-c3cn[nH]c3)c3onc(N)c23)c(F)cc1N` [Example 4(8), 2-amino-5-(3-amino-7-(1H-pyrazol-4-yl)isoxazolo[4,5-c]pyridin-4-yl)-N-ethyl-4-fluorobenzamide hydrochloride], the EC50 in the assay with THP1-Dual cells came to 20 nM.

In turn, `CC(=O)c1cc(-c2ncc(-c3cn[nH]c3)c3onc(N)c23)ccc1N` [Example 4(9), 1-(2-amino-5-(3-amino-7-(1H-pyrazol-4-yl)isoxazolo[4,5-c]pyridin-4-yl)phenyl)ethan-1-one hydrochloride] gave an EC50 in the assay with THP1-Dual cells of 130 nM.

In the assay with THP1-Dual cells, `CNC(=O)c1cc(-c2ncc(-c3cn[nH]c3)c3onc(N)c23)ccc1N` [Example 4(15), 2-amino-5-(3-amino-7-(1H-pyrazol-4-yl)isoxazolo[4,5-c]pyridin-4-yl)-N-methylbenzamide hydrochloride] showed an EC50 of 100 nM.

`CSc1cc(-c2ncc(-c3cn[nH]c3)c3onc(N)c23)c(Cl)cc1N` [Example 4(16), 4-(4-amino-2-chloro-5-(methylthio)phenyl)-7-(1H-pyrazol-4-yl)isoxazolo[4,5-c]pyridin-3-amine hydrochloride]: in the assay with THP1-Dual cells, a half-maximal effect (EC50) was put at 1000 nM.

In turn, `CSc1cc(-c2ncc(-c3cn[nH]c3)c3onc(N)c23)c(F)cc1N` [Example 4, 4-(4-amino-2-fluoro-5-(methylthio)phenyl)-7-(1H-pyrazol-4-yl)isoxazolo[4,5-c]pyridin-3-amine hydrochloride] yielded an EC50 with THP1-Dual cells of 90 nM.
